# In the supplement of paper PMC10307832:
# Assays:
# Test in all cases: relative viability (nuclei count vs DMSO), 5 days (fraction); higher = more cells survive
# [1] = compound: C1=CC(=CC=C1C2=CC(=C(S2)NC(=O)N)C(=O)N)F [TPCA-1] + CC(=O)Nc1cccc(-n2c(=O)n(C3CC3)c(=O)c3c(Nc4ccc(I)cc4F)n(C)c(=O)c(C)c32)c1 [Trametinib] (partner 0.02 µM)
# Method in brief: (§1)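 One day after seeding in 1536-well plates, lung cancer cell lines were dosed by pin tool. Dosing was either single-drug or a fixed anchor-drug dose plus five library-drug doses (not always all listed) in √10 steps. After 5 days, nuclei were stained in one fix-and-stain step and counted on 4× images, and relative viability is the nuclei count of treated wells over that of vehicle wells, given as the median of duplicate plates.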
# [2] = compound: C1=CC(=CC=C1C2=CC(=C(S2)NC(=O)N)C(=O)N)F [TPCA-1] + O=C(c1cc(Cc2n[nH]c(=O)c3ccccc23)ccc1F)N1CCN(C(=O)C2CC2)CC1 [Olaparib] (partner 8 µM)
# Method in brief: as §1
# [3] = compound: C1/C(=C\C2=CC=CS2)/C(=O)/C(=C/C3=CC=CS3)/C1 + Cc1nc(NC(=O)N2CCC[C@H]2C(N)=O)sc1-c1ccnc(C(C)(C)C(F)(F)F)c1 [Alpelisib] (partner 2 µM)
# Method in brief: as §1
# [4] = compound: C[C@]12O[C@H](C[C@]1(O)CO)n1c3ccccc3c3c4c(c5c6ccccc6n2c5c31)CNC4=O [Lestaurtinib] + CS(=O)(=O)CCNCc1ccc(-c2ccc3ncnc(Nc4ccc(OCc5cccc(F)c5)c(Cl)c4)c3c2)o1 [Lapatinib] (partner 2 µM)
# Method in brief: as §1
Cell Line,relative viability ([1]; first compound 0.04 µM),relative viability ([1]; first compound 0.1265 µM),relative viability ([1]; first compound 0.4 µM),relative viability ([1]; first compound 1.265 µM),relative viability ([1]; first compound 4 µM),relative viability ([2]; first compound 0.04 µM),relative viability ([2]; first compound 0.1265 µM),relative viability ([2]; first compound 0.4 µM),relative viability ([2]; first compound 1.265 µM),relative viability ([2]; first compound 4 µM),relative viability ([3]; first compound 0.2 µM),relative viability ([3]; first compound 0.6325 µM),relative viability ([3]; first compound 2 µM),relative viability ([3]; first compound 6.325 µM),relative viability ([3]; first compound 20 µM),relative viability ([4]; first compound 0.005 µM),relative viability ([4]; first compound 0.01581 µM),relative viability ([4]; first compound 0.05 µM),relative viability ([4]; first compound 0.1581 µM),relative viability ([4]; first compound 0.5 µM)
LU99A,0.66,0.487,0.553,0.466,0.284,0.257,0.277,0.293,0.223,0.168,0.499,0.547,0.545,0.476,0.454,0.839,0.627,0.446,0.38,0.213
LXF-289,0.7,0.629,0.635,0.653,0.565,1.09,0.94,1.12,1.06,0.735,1.02,1.08,1.05,0.974,1.04,0.867,0.917,0.713,0.769,0.375
NCI-H23,0.535,0.377,0.362,0.382,0.358,0.317,0.234,0.285,0.353,0.192,0.705,0.899,0.706,0.483,0.742,1.21,1.19,0.776,0.888,0.212
NCI-H322M,0.499,0.455,0.51,0.449,0.494,0.78,0.785,0.77,0.73,0.41,0.739,0.833,0.832,0.666,0.708,0.555,0.567,0.416,0.424,0.525
NCI-H358,0.167,0.165,0.157,0.158,0.0935,0.619,0.48,0.646,0.546,0.32,1.11,0.799,0.861,0.668,0.88,0.466,0.423,0.374,0.268,0.279
NCI-H460,0.172,0.161,–,0.145,0.154,0.475,0.465,0.463,0.392,0.278,0.491,0.576,0.601,–,0.463,0.869,1.33,0.23,0.415,0.0473
NCI-H520,0.773,0.69,0.75,0.674,0.278,0.409,0.353,0.391,0.373,0.344,0.927,0.847,0.928,0.82,0.835,0.833,1,0.59,0.48,0.252
NCI-H596,0.801,0.78,0.74,0.884,0.658,0.722,0.674,0.671,0.828,0.479,0.56,0.467,0.522,0.467,0.389,1.22,1.03,0.973,1.26,0.843
NCI-H647,0.553,0.444,0.47,0.382,0.277,0.763,0.437,0.66,0.525,0.358,1.14,1.32,1.08,1,1.13,0.837,0.735,0.217,0.146,0.114
NCI-H650,1.08,0.857,0.948,0.862,0.813,0.4,0.323,0.408,0.385,0.354,1.2,1.19,1.19,0.935,1.05,0.732,1.22,0.455,0.421,0.26
NCI-H661,0.67,0.541,0.535,0.573,0.377,0.751,0.748,0.77,0.721,0.758,0.611,0.792,0.838,0.515,0.7,0.466,0.608,0.444,0.444,0.323
NCI-H727,0.393,0.361,0.442,0.421,0.357,0.86,0.69,0.666,0.57,0.534,0.578,0.532,0.616,0.507,0.567,1.21,0.986,0.78,0.813,0.263
NCI-H838,0.599,0.457,0.533,0.336,0.406,0.867,0.718,0.826,0.557,0.406,1.03,0.986,0.939,0.848,0.974,1.04,0.998,0.664,0.451,0.132
NCI-H1355,0.494,0.384,0.406,0.381,0.41,0.8,0.633,0.796,0.694,0.396,0.794,0.722,0.758,0.72,0.804,1.06,1.03,0.942,0.732,0.658
NCI-H1395,1.23,0.939,1.11,1.05,0.884,0.496,0.426,0.494,0.519,0.494,1.1,1.04,1.17,1.02,1.08,1.15,1.26,0.848,0.853,0.416
NCI-H1437,0.581,0.493,0.521,0.511,0.453,0.665,0.637,0.611,0.591,0.618,0.985,0.923,0.988,0.639,0.901,0.775,0.866,0.529,0.414,0.114
